The nature of series [1]: Neutral Red Uptake cytotoxicity test. Particulars: mouse, Balb3T3 cells. Format: cell-based. Here is the method: (§1) The citotoxicity of compounds described in examples 1 and 2 was tested with the test Neutral Red Uptake to determine the IC50 values. To better define the cytotoxic potential also the lactate dehydrogenase (LDH) release was tested to verify the action on cell membrane permeability. Test were performed according to DB-ALM Protocol n L39Balb3T3 Red Uptake cytotoxicity and ISO 10993-5:2009.

For series [2], the system named is Balb3T3. Briefly: Lactate dehydrogenase (LDH) release, cell membrane permeability. Format: cell-based. More on the design: activity on cell membrane: dose or concentration left out as unconfirmed. Particulars: for LDH release, % of total enzyme contained in the cells: 14 hours exposition. The procedure:
as §1
In general terms: LDH in the medium is a marker of cell lysis.

The subject of series [3] is free radicals. Put plainly: Scavenger activity, DCA fluorimetric probe, UVA treatments. It is filed as cell-based. Here is the method:
(§2) The antioxidant power of compounds described in examples 1 and 2 was tested in two different tests, one for the scavenger activity and one for the antioxidant activity. The method is based on the fluorimetric probe 2′,7′-dichlorofluorescein diacetate (DCA) that becomes fluorescent only when it is oxidized by free radicals.

Series [4] has as its system free radicals. Put plainly: Antioxidant activity, DCA fluorimetric probe, UVA treatments. Format: cell-based. The procedure:
as §2

Series [5] can be described thus: In vitro skin permeation, static Franz diffusion cells (OECD 428). Particulars: 1% solution, 5 mg/cm2 on human skin, 24 hours, unocclusive. Format: in vitro ADME. The source says:
The in vitro skin permeation experiments were developed and validated according to the Organization for Economic Cooperation and Development adopted guideline 428 (OECD guideline for the testing of chemicals. Skin absorption: in vitro method. Guideline 428 (Paris, April 2004, updated January 2011)). Briefly, static Franz diffusion cells were set up with human skin samples according with OECD and SCSS guidelines. A simple formulation containing 1% of compound of example 1 in solution was applied topically on human skin samples (5 mg/cm2) for 24 hours in an unocclusive conditions. At the end of the exposure time the Franz diffusion cells were dismantled and the distribution of the compound was measured on the skin surface, in the stratum corneum and in the rector fluid. An extraction method was developed and the day after the extraction process, all the samples were filtered through 0.22 μm membrane filter into HPLC vials. The samples of compounds of example 1, together with known concentration standards were assayed by HPLC-UV (Waters, USA). The average amount measured in the dermis was 2% of applied dose and in the receptor fluid was 3% of the applied dose. Therefore, the calculated average dermal absorption for compound 1 was 5%.

In series [6] the test system is Balb3T3. Briefly: Neutral Red Uptake cytotoxicity test. Format: cell-based. The procedure: as §1

The structures appear in SMILES notation.

As a reminder, the IC50 is the concentration that inhibits the measured activity by half. On to `C=CCSCC(N)C(=O)Oc1ccc(/C=C/c2cc(OC(=O)C(N)CSCC=C)cc(OC(=O)C(N)CSCC=C)c2)cc1.Cl.Cl.Cl` (stereo not drawn) [Example 1, (E)-1,1′-((5-(4-((3-(allylthio)-2-ammoniopropanoyl)oxy)styryl)-1,3-phenylene)bis(oxy))bis(3-(allylthio)-1-oxopropan-2-aminium) Chloride], for which, in series [1], the IC50 amounted to 113 µM. Also, the “activity on cell membrane” value in the series with Balb3T3 [2] is reported as “not highlighted a specific activity on cell membrane”. Besides, in the series on Balb3T3 [2] (0.2 mM), the “LDH release, % of total enzyme contained in the cells” value (shortened to “LDH release, %”) amounted to 13.0%. Also, in the series on Balb3T3 [2] (0.5 mM), the “LDH release, %” value came to 13.2%. For the same molecule, the “reduction of the formation of free radicals (scavenger activity), on average” value with free radicals [3] (0.004 mM, after 5 treatments with UVA) is 41%. In the series on free radicals [4] (0.1 mM effective dose, after 5 treatments UVA), the “inhibition of free radical formation (antioxidant efficacy)” value is “more than 50%”. In addition, in series [5], the “average amount measured in the dermis” value is 2 % of applied dose, the “average amount measured in the receptor fluid” value was 3 % of the applied dose and the “calculated average dermal absorption” value is recorded as 5%.
For orientation: inhibition means the percentage by which the read-out fell short of the control. With `C=CCSCC(NC(=O)C1CCC(=O)N1)C(=O)OC` [Example 2, L-Pyroglutamyl-(R)-3-Allylsulfanyl-2-amino-propionic Acid Methyl Ester], the IC50 in series [1] was over 3000 µM. The overall biocompatibility entry in the series with Balb3T3 [6] was “very biocompatible”. The “activity on cell membrane” value in the series with Balb3T3 [2] is reported as “some slight activity on cell membrane”. Also, in the series with Balb3T3 [2] (1 mM), the “LDH release, %” value amounted to 12.3%. For the same molecule, the “reduction of free radical formation (scavenger action)” value in the series on free radicals [3] (after first UVA treatment) worked out at 23.5%. Moreover, in the series with free radicals [4] (0.025 mM, read-out: inhibition of free radical formation (antioxidant activity)), the inhibition at 25 µM turned out to be 25.6%.

These data come from patent publication US20180362456A1, “NEW COMPOUNDS WITH ANTIOXIDANT AND ANTIAGING ACTIVITY” (EMS S/A, priority 2015, published 2018).
